{"source": "patent US12441689B2", "about": "(EpiVario, Inc., priority 2019, dated 2025)", "data": [{"target": "human ACSS2 protein (Homo sapiens (Human), UniProt Q9NR19)", "sequence (Q9NR19 whole entry)": "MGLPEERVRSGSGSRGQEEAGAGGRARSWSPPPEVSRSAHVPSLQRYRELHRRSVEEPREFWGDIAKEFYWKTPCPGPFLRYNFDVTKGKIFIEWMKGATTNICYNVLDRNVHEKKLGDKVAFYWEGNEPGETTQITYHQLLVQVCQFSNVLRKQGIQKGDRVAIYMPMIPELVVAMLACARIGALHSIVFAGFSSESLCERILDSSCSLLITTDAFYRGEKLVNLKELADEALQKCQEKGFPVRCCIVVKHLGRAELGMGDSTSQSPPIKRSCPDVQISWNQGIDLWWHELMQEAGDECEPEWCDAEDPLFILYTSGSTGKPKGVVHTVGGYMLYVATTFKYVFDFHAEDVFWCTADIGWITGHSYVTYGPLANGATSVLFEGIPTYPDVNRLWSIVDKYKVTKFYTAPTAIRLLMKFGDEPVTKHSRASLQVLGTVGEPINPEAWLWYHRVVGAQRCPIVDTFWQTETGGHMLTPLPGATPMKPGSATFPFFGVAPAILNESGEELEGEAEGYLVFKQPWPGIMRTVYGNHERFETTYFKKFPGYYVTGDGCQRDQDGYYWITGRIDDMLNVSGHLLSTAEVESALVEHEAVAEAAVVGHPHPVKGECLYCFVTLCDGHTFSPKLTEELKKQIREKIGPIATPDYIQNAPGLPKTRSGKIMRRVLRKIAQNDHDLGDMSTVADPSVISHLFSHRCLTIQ", "experiment": "ACSS2 Cell-Free Activity Assay (Cell-Free IC50)", "conditions": "10 nM human ACSS2 protein, 90 minutes at 37 C, pyrophosphatase-coupled, Biomol Green absorbance at 620 nm; read-out: ACSS2 Biochemical IC50", "text": "ACSS2 Cell-Free Activity Assay (Cell-Free IC50)", "units": {"IC50": "nM"}, "values": [{"compound": "COc1ccc(-n2nc(C)c(C(=O)Nc3cccc(C(C)(F)F)c3)c2OC(=O)N2CCC(N3CCCCC3)CC2)cc1", "note": "[Compound 188, 4-((3-(1,1-difluoroethyl)phenyl)carbamoyl)-1-(4-methoxyphenyl)-3-methyl-1H-pyrazol-5-yl [1,4′-bipiperidine]-1′-carboxylate]", "IC50": "1 to 100"}, {"compound": "Cc1nn(-c2ccc(OC(F)F)cc2)c(OC(=O)N2CCC(N3CCCCC3)CC2)c1C(=O)Nc1cccc(C(C)(F)F)c1", "note": "[Compound 189, 4-((3-(1,1-difluoroethyl)phenyl)carbamoyl)-1-(4-(difluoromethoxy)phenyl)-3-methyl-1H-pyrazol-5-yl [1,4′-bipiperidine]-1′-carboxylate]", "IC50": "1 to 100"}, {"compound": "Cc1nn(-c2ccc(OC(F)F)c(-c3cccnc3)c2)c(OC(=O)N2CCC(N3CCCCC3)CC2)c1C(=O)Nc1cccc(C(C)(F)F)c1", "note": "[Compound 190, 4-((3-(1,1-difluoroethyl)phenyl)carbamoyl)-1-(4-(difluoromethoxy)-3-(pyridin-3-yl)phenyl)-3-methyl-1H-pyrazol-5-yl [1,4′-bipiperidine]-1′-carboxylate]", "IC50": "1 to 100"}, {"compound": "Cc1nn(-c2ccc(OC(F)F)cc2)c(OC(=O)N2CCN(CCO)CC2)c1C(=O)Nc1cccc(C(C)(F)F)c1", "note": "[Compound 191, 4-((3-(1,1-difluoroethyl)phenyl)carbamoyl)-1-(4-(difluoromethoxy)phenyl)-3-methyl-1H-pyrazol-5-yl 4-(2-hydroxyethyl)piperazine-1-carboxylate]", "IC50": "1 to 100"}, {"compound": "Cc1nn(-c2ccc(OC(F)F)cc2)c(C(F)(F)F)c1C(=O)Nc1cccc(C(C)(F)F)c1", "note": "[Compound 192, N-(3-(1,1-difluoroethyl)phenyl)-1-(4-(difluoromethoxy)phenyl)-3-methyl-5-(trifluoromethyl)-1H-pyrazole-4-carboxamide]", "IC50": "1 to 100"}, {"compound": "CC(=O)c1c(C(=O)Nc2cccc(C(C)(F)F)c2)c(C)nn1-c1ccc(OC(F)F)cc1", "note": "[Compound 193, 5-acetyl-N-(3-(1,1-difluoroethyl)phenyl)-1-(4-(difluoromethoxy)phenyl)-3-methyl-1H-pyrazole-4-carboxamide]", "IC50": "> 100"}, {"compound": "Cc1nn(-c2ccc(OC(F)F)cc2)c(CO)c1C(=O)Nc1cccc(C(C)(F)F)c1", "note": "[Compound 194, N-[3-(1,1-difluoroethyl)phenyl]-1-[4-(difluoromethoxy)phenyl]-5-(hydroxymethyl)-3-methyl-pyrazole-4-carboxamide]", "IC50": "1 to 100"}, {"compound": "Cc1nn(-c2ccc(OC(F)F)cc2)cc1C(=O)Nc1cccc(C(C)(F)F)c1", "note": "[Compound 196, N-(3-(1,1-difluoroethyl)phenyl)-1-(4-(difluoromethoxy)phenyl)-3-methyl-1H-pyrazole-4-carboxamide]", "IC50": "1 to 100"}, {"compound": "CC(F)(F)c1cccc(NC(=O)C2C(=O)N(c3ccc(OC(F)F)cc3)N=C2CS)c1", "note": "(centres unmarked) [Compound 197]", "IC50": "> 100"}, {"compound": "CC1=NN(c2ccc(OC(F)F)cc2)C(=O)C1(C)NC(=O)c1cccc(C(C)(F)F)c1", "note": "(centres unmarked) [Compound 198, 3-(1,1-difluoroethyl)-N-(1-(4-(difluoromethoxy)phenyl)-3,4-dimethyl-5-oxo-4,5-dihydro-1H-pyrazol-4-yl)benzamide]", "IC50": "> 100"}, {"compound": "COc1c(C(=O)Nc2cccc(C(C)(F)F)c2)c(C)nn1-c1ccc(OC(F)F)cc1", "note": "[Compound 199, N-(3-(1,1-difluoroethyl)phenyl)-1-(4-(difluoromethoxy)phenyl)-5-methoxy-3-methyl-1H-pyrazole-4-carboxamide]", "IC50": "1 to 100"}, {"compound": "Cc1nn(-c2ccc(OC(F)F)cc2)c(F)c1C(=O)Nc1cccc(C(C)(F)F)c1", "note": "[Compound 200, N-(3-(1,1-difluoroethyl)phenyl)-1-(4-(difluoromethoxy)phenyl)-5-fluoro-3-methyl-1H-pyrazole-4-carboxamide]", "IC50": "> 100"}, {"compound": "CCOc1c(C(=O)Nc2cccc(C(C)(F)F)c2)c(C)nn1-c1ccc(OC(F)F)cc1", "note": "[Compound 201, N-(3-(1,1-difluoroethyl)phenyl)-1-(4-(difluoromethoxy)phenyl)-5-ethoxy-3-methyl-1H-pyrazole-4-carboxamide]", "IC50": "> 100"}, {"compound": "COc1ccc(N2N=C(C)C(Cl)(C(=O)Nc3cccc(C(C)(F)F)c3)C2=O)cc1", "note": "(centres unmarked) [Compound 202, 4-chloro-N-(3-(1,1-difluoroethyl)phenyl)-1-(4-methoxyphenyl)-3-methyl-5-oxo-4,5-dihydro-1H-pyrazole-4-carboxamide]", "IC50": "1 to 100"}, {"compound": "CC1=NN(c2ccc(OC(F)(F)F)cc2)C(=O)C1(F)C(=O)Nc1cccc(C(C)(F)F)c1", "note": "(centres unmarked) [Compound 203, N-(3-(1,1-difluoroethyl)phenyl)-4-fluoro-3-methyl-5-oxo-1-(4-(trifluoromethoxy)phenyl)-4,5-dihydro-1H-pyrazole-4-carboxamide]", "IC50": "> 100"}, {"compound": "CC1=NN(c2ccc(OC(F)F)c(-c3ccncc3)c2)C(=O)C1(F)C(=O)Nc1cccc(C(C)(F)F)c1", "note": "(centres unmarked) [Compound 204, N-(3-(1,1-difluoroethyl)phenyl)-1-(4-(difluoromethoxy)-3-(pyridin-4-yl)phenyl)-4-fluoro-3-methyl-5-oxo-4,5-dihydro-1H-pyrazole-4-carboxamide]", "IC50": "< 1"}, {"compound": "CC1=NN(c2ccc(OC(F)F)cc2)C(=O)C1(F)C(=O)Nc1cccc(C(C)(F)F)c1", "note": "(centres unmarked) [Compound 205, N-(3-(1,1-difluoroethyl)phenyl)-1-(4-(difluoromethoxy)phenyl)-4-fluoro-3-methyl-5-oxo-4,5-dihydro-1H-pyrazole-4-carboxamide]", "IC50": "< 1"}, {"compound": "CC1=NN(c2ccc(OC(F)F)c(-c3cccnc3)c2)C(=O)C1(F)C(=O)Nc1cccc(C(C)(F)F)c1", "note": "(centres unmarked) [Compound 206, N-(3-(1,1-difluoroethyl)phenyl)-1-(4-(difluoromethoxy)-3-(pyridin-3-yl)phenyl)-4-fluoro-3-methyl-5-oxo-4,5-dihydro-1H-pyrazole-4-carboxamide]", "IC50": "< 1"}, {"compound": "CCC(C)Oc1ccc(N2N=C(C)C(F)(C(=O)Nc3cccc(C(C)(F)F)c3)C2=O)cc1", "note": "(centres unmarked) [Compound 207, N-[3-(1,1-difluoroethyl)phenyl]-4-fluoro-3-methyl-5-oxo-1-(4-sec-butoxyphenyl)pyrazole-4-carboxamide]", "IC50": "< 1"}, {"compound": "CC1=NN(c2ccc(OC(C)C)cc2)C(=O)C1(F)C(=O)Nc1cccc(C(C)(F)F)c1", "note": "(centres unmarked) [Compound 208, N-(3-(1,1-difluoroethyl)phenyl)-4-fluoro-1-(4-isopropoxyphenyl)-3-methyl-5-oxo-4,5-dihydro-1H-pyrazole-4-carboxamide]", "IC50": "< 1"}, {"compound": "COc1ccc(N2N=C(C)C(F)(C(=O)Nc3cccc(C(C)(F)F)c3)C2=O)cc1", "note": "(centres unmarked) [Compound 209, N-(3-(1,1-difluoroethyl)phenyl)-4-fluoro-1-(4-methoxyphenyl)-3-methyl-5-oxo-4,5-dihydro-1H-pyrazole-4-carboxamide]", "IC50": "< 1"}, {"compound": "Cc1nc(-c2ccc(OC(F)F)c(-c3ccccn3)c2)oc1C(=O)Nc1cccc(C(C)(F)F)c1", "note": "[Compound 213, N-(3-(1,1-difluoroethyl)phenyl)-2-(4-(difluoromethoxy)-3-(pyridin-2-yl)phenyl)-4-methyloxazole-5-carboxamide]", "IC50": "> 100"}, {"compound": "CCC(F)(F)c1cccc(NC(=O)c2oc(-c3ccc(OC(F)F)c(-c4ccccn4)c3)nc2C)c1", "note": "[Compound 214, 2-(4-(difluoromethoxy)-3-(pyridin-2-yl)phenyl)-N-(3-(1,1-difluoropropyl)phenyl)-4-methyloxazole-5-carboxamide]", "IC50": "> 100"}, {"compound": "CCC(F)(F)c1cccc(NC(=O)c2nc(-c3ccc(OC(F)F)cc3)[nH]c2C)c1", "note": "[Compound 215, 2-(4-(difluoromethoxy)phenyl)-N-(3-(1,1-difluoropropyl)phenyl)-5-methyl-1H-imidazole-4-carboxamide]", "IC50": "> 100"}, {"compound": "CCC(F)(F)c1cccc(NC(=O)c2cc(-c3ccc(OC(F)F)cc3)[nH]c2C)c1", "note": "[Compound 216, 5-[4-(difluoromethoxy)phenyl]-N-[3-(1,1-difluoropropyl)phenyl]-2-methyl-1H-pyrrole-3-carboxamide]", "IC50": "> 100"}, {"compound": "CCC(F)(F)c1cccc(NC(=O)c2cc(-c3ccc(OC(F)F)c(-c4ccccc4)c3)[nH]c2C)c1", "note": "[Compound 217, 5-[4-(difluoromethoxy)-3-phenyl-phenyl]-N-[3-(1,1-difluoropropyl)phenyl]-2-methyl-1H-pyrrole-3-carboxamide]", "IC50": "> 100"}, {"compound": "CCC(F)(F)c1cccc(NC(=O)c2nc(-c3ccc(OC(F)F)c(-c4ccccc4)c3)[nH]c2C)c1", "note": "[Compound 218, 2-(6-(difluoromethoxy)-[1,1′-biphenyl]-3-yl)-N-(3-(1,1-difluoropropyl)phenyl)-5-methyl-1 H-imidazole-4-carboxamide]", "IC50": "> 100"}, {"compound": "Cc1cc(-c2ccccc2)cc(-c2nc(C)cc(C(=O)Nc3cccc(C(C)(F)F)c3)n2)c1", "note": "[Compound 219, N-(3-(1,1-difluoroethyl)phenyl)-6-methyl-2-(5-methyl-[1,1’-biphenyl]-3-yl)pyrimidine-4-carboxamide]", "IC50": "> 100"}, {"compound": "Cc1oc(-c2ccc(OC(F)F)c(-c3cccnc3)c2)nc1C(=O)Nc1cccc(C(C)(F)F)c1", "note": "[Compound 220, N-(3-(1,1-difluoroethyl)phenyl)-2-(4-(difluoromethoxy)-3-(pyridin-3-yl)phenyl)-5-methyloxazole-4-carboxamide]", "IC50": "> 100"}, {"compound": "CCC(F)(F)c1cccc(NC(=O)c2nc(-c3ccc(OC(F)F)c(-c4cccnc4)c3)oc2C)c1", "note": "[Compound 221, 2-(4-(difluoromethoxy)-3-(pyridin-3-yl)phenyl)-N-(3-(1,1-difluoropropyl)phenyl)-5-methyloxazole-4-carboxamide]", "IC50": "> 100"}, {"compound": "CCC(F)(F)c1cccc(NC(=O)c2cc(-c3ccc(OC(F)F)cn3)[nH]c2C)c1", "note": "[Compound 222, 5-(5-(difluoromethoxy)pyridin-2-yl)-N-(3-(1,1-difluoropropyl)phenyl)-2-methyl-1H-pyrrole-3-carboxamide]", "IC50": "> 100"}, {"compound": "CCC(F)(F)c1cccc(NC(=O)c2cc(-c3ccc(OC(F)F)c(-c4ccccc4)n3)[nH]c2C)c1", "note": "[Compound 223, 5-(5-(difluoromethoxy)-6-phenylpyridin-2-yl)-N-(3-(1,1-difluoropropyl)phenyl)-2-methyl-1H-pyrrole-3-carboxamide]", "IC50": "> 100"}]}]}
